According to ChEMBL document CHEMBL3988442, “University of Dundee, Small-Polar-MMV Screening Library” (2021):
“And” between values parts separate entries of the source, which are not always exact repeats. Identical values can stand only once.

Legend:
[1] = biological target: Chromo domain-containing protein 1 (Saccharomyces cerevisiae (strain ATCC 204508 / S288c) (Baker's yeast), UniProt P32657); test: ScCHD-1 Enzyme Inhibition Assay; type: functional
[2] = tested on: Schistosoma mansoni; test: High throughput screening of compounds against Schistosoma mansoni motility; type: functional; design: dose or concentration left out as unconfirmed
[3] = biological target: ClpP1P2 (Mycobacterium tuberculosis (strain ATCC 25618 / H37Rv), UniProt P9WPC3+P9WPC5); test: in vitro assay to detect presence of AMC directly proportional to the activity of ClpP1P2. GHDDI collaboration.; type: functional
Chain of ClpP1P2 (P9WPC5 whole entry): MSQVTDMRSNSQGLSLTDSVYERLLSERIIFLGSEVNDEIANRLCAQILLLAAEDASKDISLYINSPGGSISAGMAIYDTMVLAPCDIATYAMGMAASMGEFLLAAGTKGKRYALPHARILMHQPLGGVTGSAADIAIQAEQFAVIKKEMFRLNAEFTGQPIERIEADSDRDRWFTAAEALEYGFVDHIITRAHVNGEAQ
Chain of ClpP1P2 (P9WPC3 whole entry): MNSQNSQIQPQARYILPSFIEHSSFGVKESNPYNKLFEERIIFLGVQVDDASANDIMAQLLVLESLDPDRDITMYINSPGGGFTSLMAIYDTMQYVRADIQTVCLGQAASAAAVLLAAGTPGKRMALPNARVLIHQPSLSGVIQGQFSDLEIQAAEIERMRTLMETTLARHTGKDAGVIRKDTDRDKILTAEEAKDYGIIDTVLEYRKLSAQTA

[4] = microbe, parasite or virus in culture; settings: Mycobacterium tuberculosis, 96 h, read-out: pIC50 (converted)
[5] = microbe, parasite or virus in culture; settings: Mycobacterium tuberculosis, 72 h, read-out: pIC50 (converted)
[6] = biological target: Tryptophan--tRNA ligase (Mycobacterium tuberculosis (strain ATCC 25618 / H37Rv), UniProt P9WFT3); test: Biochemical assay for Mt-TrpRS; type: functional
Chain of Tryptophan--tRNA ligase (P9WFT3 whole entry): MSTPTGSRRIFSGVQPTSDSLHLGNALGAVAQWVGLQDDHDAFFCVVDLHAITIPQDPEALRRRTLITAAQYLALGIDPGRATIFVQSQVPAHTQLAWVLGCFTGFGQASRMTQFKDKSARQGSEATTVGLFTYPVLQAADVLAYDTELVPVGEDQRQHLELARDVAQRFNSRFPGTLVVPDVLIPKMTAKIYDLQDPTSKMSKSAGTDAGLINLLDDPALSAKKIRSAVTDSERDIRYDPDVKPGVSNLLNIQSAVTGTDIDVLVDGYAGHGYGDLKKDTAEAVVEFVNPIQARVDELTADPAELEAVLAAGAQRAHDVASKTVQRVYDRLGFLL

[7] = tested on: Plasmodium falciparum; test: Calibr Malaria Delayed Death Assay SOP; type: functional, organism-based
[8] = tested on: Wolbachia pipientis; test: Anti-Wolbachia Cell-Based Screen; type: functional

Chain of Chromo domain-containing protein 1 (P32657 whole entry, the tested form may be a part): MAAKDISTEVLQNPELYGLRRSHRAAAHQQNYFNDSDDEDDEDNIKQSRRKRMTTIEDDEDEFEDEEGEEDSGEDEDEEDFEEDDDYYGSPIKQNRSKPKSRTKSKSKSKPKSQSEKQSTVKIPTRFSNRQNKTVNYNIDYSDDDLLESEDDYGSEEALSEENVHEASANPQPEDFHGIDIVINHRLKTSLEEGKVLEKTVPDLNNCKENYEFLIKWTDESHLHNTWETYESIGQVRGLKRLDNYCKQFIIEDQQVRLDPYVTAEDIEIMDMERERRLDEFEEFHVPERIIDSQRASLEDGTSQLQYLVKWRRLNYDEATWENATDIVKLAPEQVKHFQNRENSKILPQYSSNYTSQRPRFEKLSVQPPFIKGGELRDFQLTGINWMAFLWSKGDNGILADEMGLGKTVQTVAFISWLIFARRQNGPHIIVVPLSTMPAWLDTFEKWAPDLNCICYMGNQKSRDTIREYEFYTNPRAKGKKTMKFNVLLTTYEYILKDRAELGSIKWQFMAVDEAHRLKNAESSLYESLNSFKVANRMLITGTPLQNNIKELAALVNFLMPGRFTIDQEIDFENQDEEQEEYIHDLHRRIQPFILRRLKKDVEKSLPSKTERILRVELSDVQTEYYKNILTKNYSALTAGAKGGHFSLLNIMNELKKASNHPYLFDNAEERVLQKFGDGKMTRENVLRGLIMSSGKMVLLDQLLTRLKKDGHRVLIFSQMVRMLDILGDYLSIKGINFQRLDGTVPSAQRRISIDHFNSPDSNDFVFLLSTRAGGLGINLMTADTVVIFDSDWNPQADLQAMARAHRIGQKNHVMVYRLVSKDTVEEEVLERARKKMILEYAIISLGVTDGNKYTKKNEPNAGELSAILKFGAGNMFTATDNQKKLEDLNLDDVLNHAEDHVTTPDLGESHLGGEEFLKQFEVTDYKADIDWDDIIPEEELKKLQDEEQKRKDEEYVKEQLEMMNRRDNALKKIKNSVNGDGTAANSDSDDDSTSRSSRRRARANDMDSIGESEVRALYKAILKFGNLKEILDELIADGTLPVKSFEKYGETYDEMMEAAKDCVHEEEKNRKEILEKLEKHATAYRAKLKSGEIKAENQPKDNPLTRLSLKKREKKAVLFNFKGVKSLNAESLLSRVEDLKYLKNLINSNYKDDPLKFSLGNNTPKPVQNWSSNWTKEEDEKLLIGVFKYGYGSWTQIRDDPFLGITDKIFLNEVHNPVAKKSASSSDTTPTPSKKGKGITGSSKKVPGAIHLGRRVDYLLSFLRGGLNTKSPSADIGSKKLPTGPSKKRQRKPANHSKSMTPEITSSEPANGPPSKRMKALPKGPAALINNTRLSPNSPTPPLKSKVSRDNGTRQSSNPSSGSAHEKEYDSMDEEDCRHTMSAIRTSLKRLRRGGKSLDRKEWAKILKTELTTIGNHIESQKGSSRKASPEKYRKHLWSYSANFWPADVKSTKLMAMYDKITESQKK

SMILES | IC50 [1] | Percent Effect [2] | further results
Cc1ccc(C(=O)NCCCN2CCOCC2)c(Cl)c1 | > 29.5 µM |  | 
CC(=O)NCCC(=O)NCc1cccnc1-n1cnc2ccccc21 | > 29.5 µM |  | 
Cc1cccc(NC(=O)Cn2ncc(SCC(N)=O)c(Cl)c2=O)c1C | > 29.5 µM | 40.97% | 
COc1ccc(C)cc1S(=O)(=O)NCC(c1cccn1C)N(C)C (configuration not stated) | > 29.5 µM | -44.63% | 
COc1ncccc1C(=O)Nc1nc2c(s1)CN(S(=O)(=O)C1CC1)CC2 | > 29.5 µM | -71.23% | 
O=C(Cn1cc(-c2ccccc2)ncc1=O)Nc1ccncc1 | > 29.5 µM |  | IC50 [3]: > 100 µM
O=C(Cn1cc(-c2ccccc2)ncc1=O)Nc1nnc[nH]1 | > 29.5 µM |  | IC50 [3]: > 100 µM
Nc1ncc2c(n1)CN(C1CCCC1)C2=O | > 29.5 µM |  | IC50 [4]: 20.4 µM; IC50 [5]: 16.8 µM
O=C(NCC(F)(F)F)NC1CCCc2c1cnn2CCO (configuration not stated) | > 29.5 µM |  | 
CC(=O)NCCc1ccc(S(=O)(=O)N(CC(C)C)C(C)C)s1 | > 29.5 µM | 41.16% | 
Cc1cnc(CNc2c(F)cccc2-n2cccn2)o1 | > 29.5 µM | -41.52% | 
O=C(CN1CCc2ccccc21)Nc1ccc(OC(F)F)cc1 | > 29.5 µM | 42% | IC50 [6]: > 195 µM
Cc1cc(NC(=O)NCCc2ccsc2)n(C)n1 | > 29.5 µM | 10.29% | IC50 [6]: > 195 µM
Cc1cc(CN(C)C(=O)NC(C)c2nncn2C)no1 (configuration not stated) | > 29.5 µM | 0.6145% | 
O=C(NS(=O)(=O)c1ccccc1Cl)c1cccc2c1OCCO2 | > 29.5 µM | -35.61% | 
CC(c1cccnc1)N(C)Cc1csc(-c2ccccn2)n1 (configuration not stated) | > 29.5 µM | -97.18% | 
CSCCC(=O)N1CCCC1c1ccsc1 (configuration not stated) | > 29.5 µM | -17.9% | IC50 [6]: > 195 µM
CCc1cnc(CN(C)C2CCN(CCc3ccccn3)C2)o1 (configuration not stated) | > 29.5 µM | -35.57% | 
CN(C)C(C)(C)CNC(=O)C(C)(C)c1ccccc1F | > 29.5 µM | -62.05% | 
COc1ccc(CNC(=O)C2(C#N)CCCC2)cc1 | > 29.5 µM | -106.9% | IC50 [6]: > 195 µM
CCOc1ncccc1NC(=O)c1cc2c(s1)CCC2 | > 29.5 µM | -62.61% | 
O=C(Nc1cccc(CN2CCOC2=O)c1)N1CCSCC1 | > 29.5 µM | -6.059% | 

SMILES | IC50 [1] | Percent Effect [2] | further results
CC(C)NC(=O)c1nnn(-c2cccc(C(F)(F)F)c2)c1C1CC1 | > 29.5 µM | -32.68% | 
CCCN(CC(=O)NC)C(=O)c1ccc(-c2ccsc2)nc1C | > 29.5 µM | -8.65% | 
CC(NC(=O)CCCOc1ccccc1Cl)c1ccncc1 (configuration not stated) | > 29.5 µM | -74.47% | 
CSCC(CCO)NC(=O)Nc1cc(Br)ccc1C (configuration not stated) | > 29.5 µM | -20.66% | 
O=C(NCC(O)c1ccccc1Cl)c1cccc(-n2cnnn2)c1 (configuration not stated) | > 29.5 µM | -46.05% | 
CCn1ccnc1-c1nc2cc(S(=O)(=O)N3CCCC3)ccc2n1C | > 29.5 µM | -59.51% | 
CSc1ccccc1CN1CCCn2nc(CNC(=O)N(C)C)cc2C1 | > 29.5 µM | -17.72% | 
Cc1ccccc1C1CCCN1C(=O)CN1CC2(CCNCC2)OC1=O (configuration not stated) | > 29.5 µM |  | 
CCNC(=O)CCN1CCC(c2cc(N3CCOCC3)nc(C)n2)CC1 | > 29.5 µM |  | 
CCn1nc(CC(C)C)cc1C(=O)N1CC[C@@H](O)C1 | > 29.5 µM |  | 
CCn1ncnc1C1CC(=O)NCc2nc3ccccn3c21 (configuration not stated) | > 29.5 µM |  | 
O=C(Cc1cccnc1)N1CCC(OCc2ccccc2)CC1 | > 29.5 µM |  | 
Cc1ncc(S(C)(=O)=O)c(C2CCCNC2)n1 (configuration not stated) | > 29.5 µM |  | 
COC[C@@]12CC[C@@H](N3CCOCC3)C[C@H]1CCN(c1ncccn1)C2 | > 29.5 µM |  | 
CCNC(=O)[C@@H]1C[C@H](NC(=O)Cc2ccsc2)CN1Cc1ccc(C)o1 | > 29.5 µM |  | 
COC(=O)c1ccc2ccn(CC3CCCO3)c(=O)c2c1 (configuration not stated) | > 29.5 µM | -62.88% | 
c1cnn(Cc2nnc(C3CCN(C4CCOCC4)CC3)n2C2CC2)c1 | > 29.5 µM |  | 
O=C(CCc1c[nH]cn1)N1CC[C@@H](c2ccc3ccccc3c2)[C@H](O)C1 | > 29.5 µM |  | 
CCCN1CCCn2nc(CNS(=O)(=O)c3cccc(C#N)c3)cc2C1 | > 29.5 µM |  | 
CS(=O)(=O)NCc1cc2n(n1)CCCN(Cc1cccc(C#N)c1)C2 | > 29.5 µM |  | 
COc1ccc(C(=O)C2CCCN(CCCn3cccn3)C2)c(OC)c1 (configuration not stated) | > 29.5 µM |  | 
COc1ccc(C(=O)C2CCCN(Cc3ccncc3)C2)c(OC)c1 (configuration not stated) | > 29.5 µM |  | 

SMILES | IC50 [1] | Percent Effect [2] | further results
c1cn(Cc2nnc(C3CCN(c4nccs4)CC3)n2C2CC2)cn1 | > 29.5 µM |  | 
COc1ccccc1CN(C)C(=O)c1cc(CN2CCC(O)CC2)on1 | > 29.5 µM | -57.63% | 
CN(C)Cc1ccc(C2CCCCN2C(=O)c2cccc(CO)n2)cc1 (configuration not stated) | > 29.5 µM |  | 
OCC1CCCCN1c1ccc(-c2nc(-c3ccccc3F)no2)cn1 (configuration not stated) | > 29.5 µM |  | pIC50 [7]: 7.272 and 6.795
Cc1nc(N2CCN(C)CC2)ncc1C(=O)N1CC(C)(C)C(C)(O)C1 (configuration not stated) | > 29.5 µM |  | 
Cc1noc([C@@H]2CCCN2C(=O)C2CCN(C(=O)C3CCC3)CC2)n1 | > 29.5 µM | 8.394% | 
CCn1ccnc1CN1CCC(CCC(=O)Nc2ccccc2Cl)CC1 | > 29.5 µM |  | 
Cc1nc(CN2CCCC(CCc3c(F)cccc3F)C2)c[nH]1 (configuration not stated) | > 29.5 µM |  | 
COc1cccc2c1OCC(C(=O)NC1CCN(S(C)(=O)=O)CC1)C2 (configuration not stated) | > 29.5 µM |  | 
Cc1nc(N)sc1C(=O)N1CCCC(c2nccn2CCCN(C)C)C1 (configuration not stated) | > 29.5 µM |  | 
CCc1c(C)nn(CCNC(=O)C2CCCN(C(=O)N(C)C)C2)c1C (configuration not stated) | > 29.5 µM |  | 
COc1ccc(NC(=O)CCC2CCCN(Cc3ncon3)C2)cc1Cl (configuration not stated) | > 29.5 µM |  | 
NC(=O)C1CCN(C(=O)c2cccc(CN3CCOCC3)c2)CC1 | > 29.5 µM | 38.13% | 
CCC(NC(=O)C1CCN(S(C)(=O)=O)CC1)c1ccc(OC)c(C)c1 (configuration not stated) | > 29.5 µM |  | 
CN(C)Cc1nnc(C2CCN(C(=O)CCc3cccs3)CC2)n1C | > 29.5 µM |  | 
O=C1N(Cc2cccc(F)c2F)CCCC1(O)CNC1CCCC1 (configuration not stated) | > 29.5 µM |  | 
CN(C)CC1(O)CCN(S(=O)(=O)c2ccc(F)cc2)C1 (configuration not stated) | > 29.5 µM |  | 
O=C(Cn1c(=O)n(Cc2ccco2)c2ncccc21)NC1CCCCC1 | > 29.5 µM |  | 
CN(C(=O)C1CCCCC1)[C@@H]1CCC[C@@H](N2CCOCC2)[C@@H]1O | > 29.5 µM |  | 
Cc1ccc(-c2nc(CNC3CCc4ncnn4C3)co2)c(C)c1 (configuration not stated) | > 29.5 µM |  | 
CC(C)c1nc(C2CCCN2Cc2ccccc2C#N)no1 (configuration not stated) | > 29.5 µM |  | 
c1ncn(CC2CCCCN2Cc2csc(C3CCCC3)n2)n1 (configuration not stated) | > 29.5 µM |  | 

SMILES | IC50 [1] | Percent Effect [2] | further results
Cc1cc(C(=O)N2CCCCC2c2nc(C)cs2)[nH]n1 (configuration not stated) | > 29.5 µM |  | 
COc1ccc(C(=O)N2CCCCC2c2nc(C)cs2)nn1 (configuration not stated) | 21.8 µM and > 29.5 µM |  | 
O=C(CS(=O)(=O)CC1CCCCC1)NC1CCCCNC1=O (configuration not stated) | > 29.5 µM |  | 
CN(C)c1ccc(CNc2cncc(-n3cccn3)n2)cc1 | > 29.5 µM |  | 
CN(C)C(CNC(=O)c1cc2c([nH]c1=O)CCCC2=O)c1ccsc1 (configuration not stated) | > 29.5 µM |  | 
COCCN1CCN(CCCS(C)(=O)=O)CC1C (configuration not stated) | > 29.5 µM |  | 
CCOCCN1CCN(Cc2cccc(C(=O)N(C)C)c2)CC1 | > 29.5 µM |  | 
CCc1nc(C2CCCN(C(=O)c3cn(C)nc3C)C2)no1 (configuration not stated) | > 29.5 µM |  | 
CNC(=O)COc1ccccc1CNC1CCc2ncnn2C1 (configuration not stated) | > 29.5 µM |  | 
CNC(=O)C1CCC(NC(=O)N(C)Cc2c(C)noc2C)CC1 (configuration not stated) | > 29.5 µM |  | 
O=C1NCc2ccc(NC(=O)C3CCCN3c3nccs3)cc21 (configuration not stated) | > 29.5 µM |  | 
CC(Cn1cccn1)NC(=O)N1CCN(Cc2cccs2)CC1 (configuration not stated) | > 29.5 µM |  | 
CC(NC(=O)c1cc(Br)c2c(c1)OCCO2)C(N)=O (configuration not stated) | > 29.5 µM |  | 
CC(=O)N(Cc1noc(C)n1)C1CCN(Cc2ccon2)C1 (configuration not stated) | > 29.5 µM |  | 
CNS(=O)(=O)c1cccc(CNC(=O)c2c(C)oc(C)c2C)c1 | > 29.5 µM |  | 
O=C(c1csc(Br)c1)N1CCCC(n2ccnc2)C1 (configuration not stated) | > 29.5 µM |  | 
COc1ccc(CC(=O)N(C)Cc2nnc3ccccn23)cc1 | > 29.5 µM |  | 
Cc1ccccc1CC(C)NCc1c(C)nn(C)c1N1CCOCC1.Cl (configuration not stated) | > 29.5 µM | 7.535% | 
COc1ccc(C[C@H]2CN(c3nnc(C)s3)CC[C@@H]2OC)cc1.O=C(O)C(F)(F)F | > 29.5 µM |  | pIC50 [8]: 5.531; IC50 ([8]; Wolbachia pipientis): 3.58 µM; IC50 [4]: 24.7 µM; IC50 [5]: > 50.1 µM
Cc1ccc(=O)n(CC2(O)CCN(Cc3cc(C)c(O)c(C)c3)CC2)n1 | > 29.5 µM |  | 
